Data on 23 compounds can be found in patent US11192891B2, “Diazaspiro ROCK inhibitors” (BRISTOL-MYERS SQUIBB COMPANY, priority 2017, dated 2021).

As a reminder, the pIC50 is the IC50 on a negative log10 scale, so that one unit is a factor of ten. One may read the pEC50 as the EC50 on a negative log10 scale, so that one unit is a factor of ten.

pEC50, pIC50: −log10 of the molar value.

This test deals with ROCK2 (Homo sapiens, UniProt O75116). Kind of test: ROCK kinase inhibition assay, FITC peptide substrate, LABCHIP 3000 readout. It is filed as biochemical. The conditions noted are these: 5 μM ATP, 1.5 μM peptide substrate. The method in brief: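 Tested across a concentration range, with percent inhibition of kinase activity derived per concentration. Peptide phosphorylation, initiated by adding the Rho kinase variant (final DMSO <2%), was quenched with EDTA and substrate/product resolved by mobility shift.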
Chain of ROCK2 (O75116 whole entry, species assumed): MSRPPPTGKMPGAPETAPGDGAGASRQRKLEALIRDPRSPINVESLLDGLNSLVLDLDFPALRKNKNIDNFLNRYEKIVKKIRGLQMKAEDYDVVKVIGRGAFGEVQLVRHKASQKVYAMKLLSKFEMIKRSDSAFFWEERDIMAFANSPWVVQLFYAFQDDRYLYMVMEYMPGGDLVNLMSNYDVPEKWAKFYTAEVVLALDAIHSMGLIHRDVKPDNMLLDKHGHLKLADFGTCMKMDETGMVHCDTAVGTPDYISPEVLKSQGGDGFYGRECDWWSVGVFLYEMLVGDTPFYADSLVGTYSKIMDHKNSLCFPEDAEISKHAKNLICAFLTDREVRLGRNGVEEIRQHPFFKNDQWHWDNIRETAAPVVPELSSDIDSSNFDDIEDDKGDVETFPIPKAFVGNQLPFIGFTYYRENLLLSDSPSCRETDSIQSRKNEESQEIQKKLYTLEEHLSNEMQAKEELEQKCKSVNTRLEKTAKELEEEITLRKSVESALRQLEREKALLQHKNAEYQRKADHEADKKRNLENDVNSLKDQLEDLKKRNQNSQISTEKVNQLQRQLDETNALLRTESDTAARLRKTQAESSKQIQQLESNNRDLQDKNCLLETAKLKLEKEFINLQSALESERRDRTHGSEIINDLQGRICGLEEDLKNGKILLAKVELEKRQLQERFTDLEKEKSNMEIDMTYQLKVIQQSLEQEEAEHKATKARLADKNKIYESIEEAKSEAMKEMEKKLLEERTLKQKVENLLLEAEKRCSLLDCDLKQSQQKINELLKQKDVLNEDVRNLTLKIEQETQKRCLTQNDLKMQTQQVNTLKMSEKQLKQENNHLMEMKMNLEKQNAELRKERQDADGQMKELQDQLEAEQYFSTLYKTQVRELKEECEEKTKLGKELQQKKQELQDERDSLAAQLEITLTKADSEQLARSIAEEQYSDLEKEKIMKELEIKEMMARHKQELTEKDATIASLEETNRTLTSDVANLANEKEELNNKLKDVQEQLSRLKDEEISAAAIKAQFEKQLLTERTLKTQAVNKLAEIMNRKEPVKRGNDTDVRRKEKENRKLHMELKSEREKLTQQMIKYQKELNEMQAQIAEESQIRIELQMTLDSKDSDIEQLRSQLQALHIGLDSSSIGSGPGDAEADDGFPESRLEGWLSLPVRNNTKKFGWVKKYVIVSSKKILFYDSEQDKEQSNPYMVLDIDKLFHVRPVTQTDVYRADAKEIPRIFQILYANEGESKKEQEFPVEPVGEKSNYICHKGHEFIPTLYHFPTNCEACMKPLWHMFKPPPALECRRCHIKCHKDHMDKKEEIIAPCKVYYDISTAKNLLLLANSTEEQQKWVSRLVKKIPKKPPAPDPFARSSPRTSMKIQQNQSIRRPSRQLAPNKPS

`COc1ccc(S(=O)(=O)N2CCC3(CCN(c4ccc(-c5cn[nH]c5)c(OC)c4)C3=O)CC2)cc1F` [Example 212, 8-(3-fluoro-4-methoxybenzenesulfonyl)-2-[3-methoxy-4-(1H-pyrazol-4-yl)phenyl]-2,8-diazaspiro[4.5]decan-1-one] gave a negative logarithm of the IC50 (pIC50) of 6.55.
Same read-out and setting: in the case of `COc1cc(N2CCC3(CCN(C(=O)c4ccc(N5CCN(C6CCCCC6)CC5)cc4)CC3)C2=O)ccc1-c1cn[nH]c1` [Example 226, 8-[4-(4-cyclohexylpiperazin-1-yl)benzoyl]-2-[3-methoxy-4-(1H-pyrazol-4-yl)phenyl]-2,8-diazaspiro[4.5]decan-1-one] it was 9.15; in that of `COc1cc(N2CCC3(CCN(C(=O)c4cc(C(F)(F)F)n(C)n4)CC3)C2=O)ccc1-c1cn[nH]c1` [Example 107, 2-[3-methoxy-4-(1H-pyrazol-4-yl)phenyl]-8-[1-methyl-S-(trifluoromethyl)-1H-pyrazole-3-carbonyl]-2,8-diazaspiro[4.5]decan-1-one], 7.17; in that of `COc1cc(N2CCC3(CCN(C(=O)c4ccc(N5CCOCC5)c(F)c4)CC3)C2=O)ccc1-c1cn[nH]c1` [Example 127, 8-[3-fluoro-4-(morpholin-4-yl)benzoyl]-2-[3-methoxy-4-(1H-pyrazol-4-yl)phenyl]-2,8-diazaspiro[4.5]decan-1-one], 7.95.
As to `COc1cc(N2CCC3(CCN(C(=O)C4CCN(C)CC4)CC3)C2=O)ccc1-c1cn[nH]c1` [Example 172, 2-[3-methoxy-4-(1H-pyrazol-4-yl)phenyl]-8-(1-methylpiperidine-4-carbonyl)-2,8-diazaspiro[4.5]decan-1-one], the pIC50 is 5.68.
On to `COc1ccccc1C(=O)N1CCC2(CC1)CCN(c1ccc(-c3cn[nH]c3)c(OC)c1)C2=O` [Example 12, 2-[3-methoxy-4-(1H-pyrazol-4-yl)phenyl]-8-(2-methoxybenzoyl)-2,8-diazaspiro[4.5]decan-1-one], for which the pIC50 is 7.27. This pIC50 lies 1.59 log units higher than the previous one.
With `COc1cc(N2CCC3(CCN(S(=O)(=O)c4ccc5c(c4)C(=O)NC5=O)CC3)C2=O)ccc1-c1cn[nH]c1` [Example 210, 5-({2-[3-methoxy-4-(1H-pyrazol-4-yl)phenyl]-1-oxo-2,8-diazaspiro[4.5]decan-8-yl}sulfonyl)-2,3-dihydro-1H-isoindole-1,3-dione], the pIC50 was 5.64.
Same read-out and setting: in the case of `COc1ccc(-c2cc(C(=O)N3CCC4(CC3)CCN(c3ccc(-c5cn[nH]c5)c(OC)c3)C4=O)on2)cc1` [Example 113, 2-[3-methoxy-4-(1H-pyrazol-4-yl)phenyl]-8-[3-(4-methoxyphenyl)-1,2-oxazole-5-carbonyl]-2,8-diazaspiro[4.5]decan-1-one] it was 7.77; in that of `COc1cc(N2CCC3(CCN(C(=O)c4ccc(N5CCN(Cc6ccc(Cl)cc6)CC5)cc4)CC3)C2=O)ccc1-c1cn[nH]c1` [Example 227, 8-(4-{4-[(4-chlorophenyl)methyl]piperazin-1-yl}benzoyl)-2-[3-methoxy-4-(1H-pyrazol-4-yl)phenyl]-2,8-diazaspiro[4.5]decan-1-one], 8.66; in that of `COc1cc(OC)c(C(=O)N2CCC3(CC2)CCN(c2ccc(-c4cn[nH]c4)c(OC)c2)C3=O)c(OC)c1` [Example 29, 2-[3-methoxy-4-(1H-pyrazol-4-yl)phenyl]-8-(2,4,6-trimethoxybenzoyl)-2,8-diazaspiro[4.5]decan-1-one], 6.47.
`COc1cnc(C(=O)N2CCC3(CC2)CCN(c2ccc(-c4cn[nH]c4)c(OC)c2)C3=O)cn1` [Example 101, 2-[3-methoxy-4-(1H-pyrazol-4-yl)phenyl]-8-(5-methoxypyrazine-2-carbonyl)-2,8-diazaspiro[4.5]decan-1-one] had a negative logarithm of the IC50 (pIC50) of 7.07.
Take `COc1cc(N2CCC3(CCN(C(=O)c4ccc(N5CCN(Cc6cccc(Cl)c6)CC5)cc4)CC3)C2=O)ccc1-c1cn[nH]c1` [Example 186, 8-(4-{4-[(3-chlorophenyl)methyl]piperazin-1-yl}benzoyl)-2-[3-methoxy-4-(1H-pyrazol-4-yl)phenyl]-2,8-diazaspiro[4.5]decan-1-one]: the negative-log IC50 (pIC50) was 8.92. This pIC50 is 1.85 log units higher than that of the compound before.
For the compound `COc1cc(N2CCC3(CCN(C(=O)c4cccc(C(F)(F)F)c4)CC3)C2=O)ccc1-c1cn[nH]c1` [Example 58, 2-[3-methoxy-4-(1H-pyrazol-4-yl)phenyl]-8-[3-(trifluoromethyl)benzoyl]-2,8-diazaspiro[4.5]decan-1-one], the pIC50 is 6.84.
As to `COc1ccc(NC(=O)N2CCC3(CC2)CCN(c2ccc(-c4cn[nH]c4)c(OC)c2)C3=O)cc1` [Example 217, 2-[3-methoxy-4-(1H-pyrazol-4-yl)phenyl]-N-(4-methoxyphenyl)-1-oxo-2,8-diazaspiro[4.5]decane-8-carboxamide], the negative-log IC50 (pIC50) is 5.61.
`COc1cc(N2CCC3(CCN(C(=O)c4ccc(C)nc4)CC3)C2=O)ccc1-c1cn[nH]c1` [Example 72, 2-[3-methoxy-4-(1H-pyrazol-4-yl)phenyl]-8-(6-methylpyridine-3-carbonyl)-2,8-diazaspiro[4.5]decan-1-one]: the negative logarithm of the IC50 (pIC50) is 6.66. Compared with the last compound, the pIC50 is 1.05 log units higher.
For the compound `COc1cc(N2CCC3(CCN(C(=O)c4ccc(-n5cnnn5)cc4)CC3)C2=O)ccc1-c1cn[nH]c1` [Example 118], the negative-log IC50 (pIC50) was 7.24.
`COc1ccc(C(=O)N2CCC3(CC2)CCN(c2ccc(-c4cn[nH]c4)cc2)C3=O)cc1F` [Example 11, 8-(3-fluoro-4-methoxybenzoyl)-2-[4-(1H-pyrazol-4-yl)phenyl]-2,8-diazaspiro[4.5]decan-1-one]: the negative-log EC50 (pEC50) is 7.80.
The compound `COc1cccc(C(=O)N2CCC3(CC2)CN(c2ccc(-c4cn[nH]c4)cc2)C3=O)c1` [Example 41, 7-(3-methoxybenzoyl)-2-[4-(1H-pyrazol-4-yl)phenyl]-2,7-diazaspiro[3.5]nonan-1-one] showed a pIC50 of 6.55.
In turn, `COc1cc(N2CCC3(CCN(C(=O)c4ccc(-n5cccn5)cc4)CC3)C2=O)ccc1-c1cn[nH]c1` [Example 124, 2-[3-methoxy-4-(1H-pyrazol-4-yl)phenyl]-8-[4-(1H-pyrazol-1-yl)benzoyl]-2,8-diazaspiro[4.5]decan-1-one] gave a negative logarithm of the IC50 (pIC50) of 7.21.
Turning to `COc1cc(N2CCC3(CCN(C(=O)c4ccc(C(=O)O)cc4)CC3)C2=O)ccc1-c1cn[nH]c1` [Example 25, 4-{2-[3-methoxy-4-(1H-pyrazol-4-yl)phenyl]-1-oxo-2,8-diazaspiro[4.5]decane-8-carbonyl}benzoic acid], the negative logarithm of the IC50 (pIC50) is 5.84.
Consider `COc1cc(N2CCC3(CCN(C(=O)c4ccc(N5CCN(C)CC5)cc4)CC3)C2=O)ccc1-c1cn[nH]c1` [Example 120, 2-[3-methoxy-4-(1H-pyrazol-4-yl)phenyl]-8-[4-(4-methylpiperazin-1-yl)benzoyl]-2,8-diazaspiro[4.5]decan-1-one], for which the pIC50 was 9.52. This pIC50 is 3.68 log units higher than that of the compound before.
`COc1cc(N2CCC3(CCN(C(=O)c4ccc(C(N)=O)cc4)CC3)C2=O)ccc1-c1cn[nH]c1` [Example 181, 4-{2-[3-methoxy-4-(1H-pyrazol-4-yl)phenyl]-1-oxo-2,8-diazaspiro[4.5]decane-8-carbonyl}benzamide] had a pIC50 of 7.46.
Still for that read-out and setting: to `COc1cc(N2CCC3(CCN(C(=O)c4ncc(Br)cn4)CC3)C2=O)ccc1-c1cn[nH]c1` [Example 116, 8-(5-bromopyrimidine-2-carbonyl)-2-[3-methoxy-4-(1H-pyrazol-4-yl)phenyl]-2,8-diazaspiro[4.5]decan-1-one] belongs 7.06.
